Measured values reported in ChEMBL document CHEMBL1150776, “Naturally occurring pentacyclic triterpenes as inhibitors of glycogen phosphorylase: synthesis, structure-activity relationships, and X-ray crystallographic studies” (J Med Chem, 2008).
Activity calls are given as the source filed them. The rule behind the calls is not given here.

target: T1, Glycogen phosphorylase, muscle form (Oryctolagus cuniculus) (UniProt P00489); assay: (§1) Inhibition of rabbit muscle glycogen phosphorylase A assessed as phosphate release from glucose-1-phosphate
T1 sequence (whole entry): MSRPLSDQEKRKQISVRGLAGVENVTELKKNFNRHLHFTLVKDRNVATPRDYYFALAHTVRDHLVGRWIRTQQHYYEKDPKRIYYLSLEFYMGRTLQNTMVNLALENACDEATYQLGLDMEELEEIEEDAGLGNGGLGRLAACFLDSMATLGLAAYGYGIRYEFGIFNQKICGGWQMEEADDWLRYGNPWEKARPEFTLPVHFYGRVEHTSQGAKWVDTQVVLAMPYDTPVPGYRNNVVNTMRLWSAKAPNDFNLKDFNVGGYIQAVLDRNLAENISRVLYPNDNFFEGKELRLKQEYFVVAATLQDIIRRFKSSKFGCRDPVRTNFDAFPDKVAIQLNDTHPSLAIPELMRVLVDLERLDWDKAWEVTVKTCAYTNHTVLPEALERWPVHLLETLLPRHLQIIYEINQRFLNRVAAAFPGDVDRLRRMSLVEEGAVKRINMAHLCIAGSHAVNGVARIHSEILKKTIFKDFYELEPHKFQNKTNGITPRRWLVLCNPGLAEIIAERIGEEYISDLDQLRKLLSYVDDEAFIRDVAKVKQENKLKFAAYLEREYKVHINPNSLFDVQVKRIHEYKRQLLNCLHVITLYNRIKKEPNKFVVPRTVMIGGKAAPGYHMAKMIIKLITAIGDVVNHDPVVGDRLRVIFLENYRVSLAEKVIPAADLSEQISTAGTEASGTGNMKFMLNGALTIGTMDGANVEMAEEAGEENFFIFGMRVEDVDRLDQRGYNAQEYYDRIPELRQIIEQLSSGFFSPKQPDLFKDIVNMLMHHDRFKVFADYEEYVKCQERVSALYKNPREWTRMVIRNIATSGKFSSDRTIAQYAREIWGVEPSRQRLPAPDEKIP

Activity | Structure (SMILES)
inactive | C[C@H]1[C@H](C)CC[C@]2(C(=O)O[C@@H]3O[C@H](CO[C@@H]4O[C@H](CO)[C@@H](O[C@@H]5O[C@@H](C)[C@@H](O)[C@H](O)[C@@H]5O)[C@H](O)[C@H]4O)[C@@H](O)[C@H](O)[C@H]3O)CC[C@]3(C)C(=CC[C@@H]4[C@@]5(C)C[C@@H](O)[C@H](O)[C@@](C)(CO)[C@@H]5[C@H](O)C[C@]43C)[C@H]12
inactive | C[C@H]1[C@H](C)CC[C@]2(C(=O)O)CC[C@]3(C)C(=CC[C@@H]4[C@@]5(C)C[C@@H](O)[C@H](O)[C@@](C)(CO)[C@@H]5[C@H](O)C[C@]43C)[C@H]12

target: T2, Glycogen phosphorylase, muscle form (Oryctolagus cuniculus, UniProt P00489); assay: as §1
T2 sequence (P00489 whole entry): T1 sequence (whole entry)

Structure (SMILES) | IC50 [µM]
CC1(C)[C@@H](O[C@H]2O[C@H](C(=O)O)[C@@H](O)[C@H](O)[C@H]2O[C@@H]2O[C@H](C(=O)O)[C@@H](O)[C@H](O)[C@H]2O)CC[C@]2(C)[C@H]3C(=O)C=C4[C@@H]5C[C@@](C)(C(=O)O)CC[C@]5(C)CC[C@@]4(C)[C@]3(C)CC[C@@H]12 [GLYCYRRHIZIN] | 822
C=C(C)[C@@H]1CC[C@]2(C(=O)O)CC[C@]3(C)[C@H](CC[C@@H]4[C@@]5(C)CC[C@H](O)[C@@](C)(CO)[C@@H]5CC[C@]43C)[C@@H]12 | 16
C=C(C)[C@@H]1CC[C@]2(CO)CC[C@]3(C)[C@H](CC[C@@H]4[C@@]5(C)CC[C@H](O)C(C)(C)[C@@H]5CC[C@]43C)[C@@H]12 [BETULIN] | 17
C=C(C)[C@@H]1CC[C@]2(C(=O)O)CC[C@]3(C)[C@H](CC[C@@H]4[C@@]5(C)CC[C@H](O)C(C)(C)[C@@H]5CC[C@]43C)[C@@H]12 [BETULINIC ACID] | 43
C[C@H]1[C@H](C)CC[C@]2(C(=O)O)CC[C@]3(C)C(=CC[C@@H]4[C@@]5(C)CC[C@H](O)C(C)(C)[C@@H]5CC[C@]43C)[C@H]12 [URSOLIC ACID] | 9
C[C@H]1[C@H](C)CC[C@]2(C(=O)O)CC[C@]3(C)C(=CC[C@@H]4[C@@]5(C)CC[C@@H](O)C(C)(C)[C@@H]5CC[C@]43C)[C@H]12 | 19
CC1(C)[C@@H](O)CC[C@]2(C)[C@H]3CC=C4[C@@H]5C[C@@](C)(C(=O)O)CC[C@]5(C)CC[C@@]4(C)[C@]3(C)CC[C@@H]12 | 82

Continued, values first:

IC50 [µM] | Structure (SMILES)
97 | C[C@H]1[C@H](C)CC[C@]2(C(=O)O[C@@H]3O[C@H](CO)[C@@H](O)[C@H](O)[C@H]3O)CC[C@]3(C)C(=CC[C@@H]4[C@@]5(C)CC[C@H](O)C(C)(C)[C@@H]5CC[C@]43C)[C@H]12
106 | C[C@H]1[C@H](C)CC[C@]2(C(=O)O[C@@H]3O[C@H](CO)[C@@H](O)[C@H](O)[C@H]3O)CC[C@]3(C)C(=CC[C@@H]4[C@@]5(C)C[C@@H](O)[C@H](O)C(C)(C)[C@@H]5CC[C@]43C)[C@H]12
293 | CC1(C)CC[C@]2(C(=O)O[C@@H]3O[C@H](CO)[C@@H](O)[C@H](O)[C@H]3O)CC[C@]3(C)C(=CC[C@@H]4[C@@]5(C)CC[C@H](O)C(C)(C)[C@@H]5CC[C@]43C)[C@@H]2C1
66 | CC1(C)[C@@H](O)CC[C@]2(C)[C@H]3C(=O)C=C4[C@@H]5C[C@@](C)(C(=O)O)CC[C@]5(C)CC[C@@]4(C)[C@]3(C)CC[C@@H]12 [ENOXOLONE]
57 | C[C@H]1[C@H](C)CC[C@]2(C(=O)O)CC[C@]3(C)C(=CC[C@@H]4[C@@]5(C)CCC(=O)C(C)(C)[C@@H]5CC[C@]43C)[C@H]12 [URSONIC ACID]

target: T1, Glycogen phosphorylase, muscle form (Oryctolagus cuniculus); assay: Inhibition of rabbit muscle glycogen phosphorylase A assessed as phosphate release from glucose-1-phosphate at 2000 uM

Activity | Structure (SMILES)
inactive | C[C@H]1[C@H](C)CC[C@]2(C(=O)O[C@@H]3O[C@H](CO[C@@H]4O[C@H](CO)[C@@H](O[C@@H]5O[C@H](C)[C@H](O)[C@@H](O)[C@H]5O)[C@H](O)[C@H]4O)[C@@H](O)[C@H](O)[C@H]3O)CC[C@]3(C)C(=CC[C@@H]4[C@@]5(C)C[C@@H](O)[C@H](O)[C@@](C)(CO)[C@@H]5CC[C@]43C)[C@H]12
